Assay results reported in patent publication US20090318451A1, “[…] AGONISTS FOR THE TREATMENT OF PAIN” (Pfizer Inc., priority 2007, published 2009).
Read-outs that look alike come from different tables or passages of the source.

Key:
[1] = system: Capsaicin-induced hyperalgesia; experiment: Capsaicin-induced hyperalgesia, static and dynamic allodynia endpoint; assay type: in vivo, rat
D4 dopamine receptor [2] = target: T1, D4 dopamine receptor (Homo sapiens, UniProt P21917); experiment: Functional inhibition of forskolin-stimulated cAMP accumulation in human recombinant cell lines, D4; assay type: cell-based
T1 construct: expressed in transfected cells
T1 sequence (P21917 1-419): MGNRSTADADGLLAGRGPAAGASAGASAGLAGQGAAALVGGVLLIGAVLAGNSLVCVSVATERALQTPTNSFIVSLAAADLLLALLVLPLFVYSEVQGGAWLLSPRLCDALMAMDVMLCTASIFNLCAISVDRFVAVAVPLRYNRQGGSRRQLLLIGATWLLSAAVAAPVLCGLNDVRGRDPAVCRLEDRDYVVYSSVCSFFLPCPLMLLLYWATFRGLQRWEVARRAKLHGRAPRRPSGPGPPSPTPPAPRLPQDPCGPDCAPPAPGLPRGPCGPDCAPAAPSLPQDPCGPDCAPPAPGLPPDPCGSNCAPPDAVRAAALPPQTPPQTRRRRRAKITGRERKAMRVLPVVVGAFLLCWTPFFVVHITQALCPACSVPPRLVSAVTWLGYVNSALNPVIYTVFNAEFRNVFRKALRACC

D1 = D1 (Homo sapiens, UniProt P21728); experiment: In vitro binding (membrane preparation), human recombinant receptors, D1
Chain of D1 (P21728 whole entry): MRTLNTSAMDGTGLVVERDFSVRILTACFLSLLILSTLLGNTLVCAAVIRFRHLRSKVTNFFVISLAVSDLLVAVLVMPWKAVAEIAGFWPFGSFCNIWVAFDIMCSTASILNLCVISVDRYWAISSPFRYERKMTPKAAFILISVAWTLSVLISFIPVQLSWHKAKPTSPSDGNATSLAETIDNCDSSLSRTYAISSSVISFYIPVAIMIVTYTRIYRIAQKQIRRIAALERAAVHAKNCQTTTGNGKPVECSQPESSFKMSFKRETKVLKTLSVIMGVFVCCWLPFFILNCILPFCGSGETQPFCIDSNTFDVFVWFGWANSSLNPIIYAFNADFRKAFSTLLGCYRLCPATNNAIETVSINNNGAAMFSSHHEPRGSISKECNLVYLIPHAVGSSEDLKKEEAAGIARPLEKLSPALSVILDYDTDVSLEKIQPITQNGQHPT

[3] = system: MIA-induced static allodynia (rats); experiment: Monosodium iodoacetate (MIA)-induced static allodynia; assay type: in vivo, rat
D4 dopamine receptor [4] = target: T1, D4 dopamine receptor; experiment: In vitro binding (membrane preparation), human recombinant receptors, D4
[5] = target: T2, human Dopamine D3 receptor (Homo sapiens, UniProt P35462); experiment: Inhibition via dopamine D3 receptors of forskolin-stimulated adenylate cyclase activity (cAMP, hD3CHO cells); assay type: cell-based; conditions: for functional selectivity for D3 over D2: D2 EC50 divided by D3 EC50, 10000 used where D2 EC50 >10000
T2 construct: expressed in transfected cells; host or cells: CHO (dihydrofolate reductase deficient), generated in house
T2 sequence (P35462 whole entry): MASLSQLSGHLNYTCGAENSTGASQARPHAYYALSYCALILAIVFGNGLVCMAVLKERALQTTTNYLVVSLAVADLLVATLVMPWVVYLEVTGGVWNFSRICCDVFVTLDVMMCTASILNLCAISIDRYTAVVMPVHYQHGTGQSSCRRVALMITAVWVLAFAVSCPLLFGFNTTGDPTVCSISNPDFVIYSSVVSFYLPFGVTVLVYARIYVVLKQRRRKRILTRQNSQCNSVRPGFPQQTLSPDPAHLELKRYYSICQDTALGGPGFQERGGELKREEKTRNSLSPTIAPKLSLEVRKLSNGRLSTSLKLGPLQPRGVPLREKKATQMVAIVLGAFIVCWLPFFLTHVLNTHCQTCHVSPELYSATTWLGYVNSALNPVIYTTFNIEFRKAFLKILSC

[6] = system: MIA-induced weight deficit (rats); experiment: MIA-induced weight-bearing deficit; assay type: in vivo, rat
[7] = target: T3, human dopamine D2long receptor (Homo sapiens, UniProt P14416); experiment: Inhibition via dopamine D2 receptors of forskolin-stimulated adenylate cyclase activity (cAMP, GH4C1/hD2L cells); assay type: cell-based
T3 construct: expressed in transfected cells; host or cells: GH4C1 rat pituitary cells
T3 sequence (P14416 whole entry): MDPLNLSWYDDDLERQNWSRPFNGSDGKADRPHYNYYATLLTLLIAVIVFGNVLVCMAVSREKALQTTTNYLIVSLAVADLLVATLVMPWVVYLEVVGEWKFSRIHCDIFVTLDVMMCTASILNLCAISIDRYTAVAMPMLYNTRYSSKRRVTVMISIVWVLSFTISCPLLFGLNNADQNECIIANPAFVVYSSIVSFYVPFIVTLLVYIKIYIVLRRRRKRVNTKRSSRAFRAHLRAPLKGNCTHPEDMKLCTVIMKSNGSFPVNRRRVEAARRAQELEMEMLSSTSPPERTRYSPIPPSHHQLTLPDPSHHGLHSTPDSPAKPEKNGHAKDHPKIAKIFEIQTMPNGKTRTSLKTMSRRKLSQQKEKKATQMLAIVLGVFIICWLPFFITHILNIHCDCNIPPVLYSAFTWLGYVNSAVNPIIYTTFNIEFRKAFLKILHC

[8] = system: CCI-induced static and dynamic allodynia (rats); experiment: Chronic constriction injury (CCI) of sciatic nerve, static and dynamic allodynia; assay type: in vivo, rat
[9] = system: Plantar surgery-induced static and dynamic allodynia (rats); experiment: Plantar surgery model of postsurgical pain, static and dynamic allodynia; assay type: in vivo, rat
D5 = D5 (Homo sapiens, UniProt P21918); experiment: In vitro binding (membrane preparation), human recombinant receptors, D5
Chain of D5 (P21918 whole entry): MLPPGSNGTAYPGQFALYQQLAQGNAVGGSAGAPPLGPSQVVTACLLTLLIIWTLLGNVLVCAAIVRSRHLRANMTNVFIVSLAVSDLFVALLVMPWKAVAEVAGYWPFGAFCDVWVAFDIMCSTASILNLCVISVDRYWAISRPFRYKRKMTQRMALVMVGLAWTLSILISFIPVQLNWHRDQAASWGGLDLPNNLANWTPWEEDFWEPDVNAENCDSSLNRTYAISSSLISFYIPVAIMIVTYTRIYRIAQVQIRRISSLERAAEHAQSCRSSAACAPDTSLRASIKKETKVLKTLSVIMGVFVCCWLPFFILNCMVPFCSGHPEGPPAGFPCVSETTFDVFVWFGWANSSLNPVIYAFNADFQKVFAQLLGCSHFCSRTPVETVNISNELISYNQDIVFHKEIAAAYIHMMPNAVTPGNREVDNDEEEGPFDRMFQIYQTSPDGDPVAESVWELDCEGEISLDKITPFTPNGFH

[10] = Free plasma concentration after oral dosing in pain model rats; conditions: for peak free-plasma concentration / predicted free-plasma exposure: based on the known PK profile, 0.1 mg/kg
D2 dopamine receptor = D2 dopamine receptor (Homo sapiens, UniProt P14416); experiment: In vitro binding (membrane preparation), human recombinant receptors, D2
Chain of D2 dopamine receptor (P14416 whole entry): as the sequence (P14416 whole entry) above

D3 dopamine receptor = D3 dopamine receptor (Homo sapiens, UniProt P35462); experiment: In vitro binding (membrane preparation), human recombinant receptors, D3
Chain of D3 dopamine receptor (P35462 whole entry): as the sequence (P35462 whole entry) above

[11] = system: Hotplate paw withdrawal latency (rats); experiment: Hotplate paw withdrawal latency; assay type: in vivo, rat

CC(C)C[C@H](CN)CC(=O)O [pregabalin, reference compound]
effect in capsaicin model, positive control compared with Example 67 at 1 mg/kg ([1]; rat, 30 mg/kg): equivalent in magnitude

CCCN1C[C@@H](c2ccc(N)nc2)OC[C@@H]1C [Example 67, 5-[(2R,5S)-5-methyl-4-propylmorpholin-2-yl]pyridin-2-amine]
EC50 (D4 dopamine receptor [2]): 3.9 µM | Emax (D4 dopamine receptor [2]; forskolin-stimulated cAMP accumulation, (95% CI)): 92% | IC50 (D1): > 10 µM | Minimum Effective Dose, capsaicin-induced hyperalgesia ([1]; oral): 0.01 mg/kg oral | dose giving optimal effect in capsaicin model ([1]; rat, oral pre-dosing): 1 mg/kg | effect on capsaicin-induced static and dynamic allodynia ([1]; rat, oral pre-dosing 0.01, 0.1 and 1 mg/kg, capsaicin 1 hour after dosing): dose response | Minimum Effective Dose, MIA-induced static allodynia ([3]; oral): 0.01 mg/kg | reversal of MIA-induced static allodynia ([3]; oral 0.1 mg/kg): full reversal | reversal of MIA-induced static allodynia ([3]; oral 0.01, 0.03 and 0.1 mg/kg): dose response in reversal of the allodynia | Ki (D4 dopamine receptor [4]): 4.16 µM | functional selectivity for D3 over D2 [5]: > 470 fold | Emax ([5]; D3, CHO cells, full agonist, normalised to pramipexole, read-out: % Emax): 95% | functional selectivity over D4 dopamine receptor ([5]; D3 versus D4, cAMP): 180 fold | Emax ([5]; forskolin-stimulated cAMP accumulation, (95% CI), read-out: % Emax, D3): 95% | Minimum Effective Dose, MIA-induced weight deficit ([6]; oral, single-dose study): 0.1 mg/kg oral single-dose study | efficacy on weight-bearing deficit following MIA injection ([6]; single dose 0.1 mg/kg): efficacy similar to optimal opioid treatment | EC50 [7]: > 10 µM | % Response @ 10 μM, D2 ([7]; 10 μM, response as percentage of the effect to pramipexole, (95% CI)): % Response @ 10 μM = 36 (19-56) | Minimum Effective Dose, CCI-induced static and dynamic allodynia ([8]; oral): No effect up to 0.1 mg/kg oral | effect on CCI-induced static and dynamic allodynia ([8]; oral 0.1 mg/kg): no effects | oral dose giving maximal effect on surgery-induced allodynia [9]: 0.1 mg/kg | reversal of surgery-induced static and dynamic allodynia ([9]; oral): dose-dependent reversal | IC50 (D5): > 10 µM | peak free-plasma concentration / predicted free-plasma exposure ([10]; oral 0.1 mg/kg): 10 nM | peak free-plasma concentration / predicted free-plasma exposure ([10]; oral 0.1 mg/kg, listed as 5-[(2R,5S)-5-methyl-4-propylmorpholin-2-yl]pyridin-2-amine): approximately 10 nM | measured mean free Cmax for MED, MIA-induced static allodynia ([10]; rats, 0.01 mg/kg oral): 1.85 nM | free plasma concentration ([10]; rats, oral 0.01 mg/kg): 1.85 nM | free plasma concentration ([10]; rats, oral 0.03 mg/kg): 5.70 nM | free plasma concentration ([10]; rats, oral 0.1 mg/kg): 10.77 nM | IC50 (D2 dopamine receptor): > 10 µM | Ki (D3 dopamine receptor): 0.215 µM | binding selectivity over D2 dopamine receptor (D3 dopamine receptor; D3 versus D2 binding): > 46 fold | efficacy in hotplate model (paw withdrawal latency) ([11]; rat, oral 0.01, 0.03, 0.1 and 1.0 mg/kg, hotplate 52° C.): no efficacy | Minimum Effective Dose, hotplate paw withdrawal latency ([11]; rats, oral): No effect up to 1.0 mg/kg oral

CCCN1CCO[C@H](c2cccc(O)c2)C1.Cl [Example 8, R-(−)-3-(4-Propylmorpholin-2-yl)phenol hydrochloride]
EC50 [5]: 0.0076 µM | functional selectivity for D3 over D2 [5]: 1315.8 fold

N#Cc1ccc2c(c1)CCN(CCC1CCC(NC(=O)c3ccnc4ccccc34)CC1)C2 (stereo not drawn) [quinoline-4-carboxylic acid (4-[2-(6-cyano-3,4-dihydro-1H-isoquinolin-2-yl)ethyl]cyclohexyl)-amide, reference compound]
effect of 0.1 mg/kg of the compound of Example 67 on MIA allodynia after D3 antagonist ([3]; antagonist oral 3 mg/kg): abolished

COc1cccc(C2(O)CCCCC2CN(C)C)c1 (stereo not drawn) [tramadol, reference compound]
reversal of MIA-induced static allodynia, positive control ([3]; 100 mg/kg): full reversal
